# Reference: patent US12187758B2 (ROME Therapeutics, Inc., priority 2022, dated 2025)
# Assays:
# Format in all cases: cell-based
# [1] = Mitochondria toxicity assay with PC3 cells, in-cell ELISA COX-1; details: 5 days treatment
# Protocol: (§1) Exemplary compounds were tested for inhibition of expression of mitochondria DNA encoded proteins COX-1 […]. SDH-A (succinate dehydrogenase-A) is a control mitochondria protein encoded by nuclear DNA. Reduction in COX-1 expression indicates off target inhibition of mitochondria DNA synthesis which leads to mitochondrial toxicity. Assay procedures and results are described below.
# (§2) PC3 cells were purchased from ATCC and cultured in F-12 Kaighn's modified medium (Hyclone), 10% heat-inactivated fetal bovine serum (Invitrogen), 1% Penicillin-Streptomycin (Invitrogen). PC3 cells were treated with a dose titration of a test compound on 96 well plates for 5 days at 37° C., 5% CO2 in a humidified incubator. The treatment plates are duplicated, one for in-cell ELISA for mitochondria proteins and one for cytotoxicity.
# (§3) In-cell ELISA was performed to measure mitochondrial proteins using MitoBiogenesis In-Cell ELISA kit (Abcam) per manufacturer's instruction. The medium was aspirated from the compound treated cells, 100 μl per well of 4% paraformaldehyde (Solarbio) was added and cells were incubated at room temperature for 20 minutes. The cells were washed three times with PBS. 100 μl of 0.5% acetic acid was added per cell, and the cells were incubate at room temperature for 5 minutes. Cells were washed once with PBS. 100 μl per well of Permeabilization Buffer was added, and the cells incubate at room temperature for 30 minutes. The permeabilization buffer was removed and 200 μl per well 2× Blocking Buffer was added and the cells were incubated at room temperature for 2 hours. After removing the Blocking Buffer 100 μl per well of primary antibody to SDH-A or COX-1 was added, and the cells were incubated at 4° C. overnight. The primary antibody solution was removed and cells were washed 3 times with the Wash Buffer. 100 μl per well of AP- and HRP-labelled secondary antibodies was added, and the cells were incubated at room temperature for 1 hour. The cells were then washed 4 times with the Wash Buffer. For SDH-A detection, 100 μl per well AP Development Solution was added, and the cells were incubated at room temperature for 10 minutes. Cells were then read on CLARTO star^plus microplate reader (BMG Labtech) for kinetic readings at 405 nm for 5 minutes. […] The cells were then read on CLARTO star^plus microplate reader (BMG Labtech) for kinetic readings at 600 nm for 15 minutes.
# (§4) In the table “A” represents values<1.0 μM; “B” represents values from >1.0 μM to ≤10.0 μM; “C” represents values from >10.0 μM to ≤50.0 μM; “D” represents values from >50.0 μM to ≤100.0 μM; and “E” represents values>100.0 μM.
# [2] = test system: SDH-A (succinate dehydrogenase-A); experiment: Mitochondria toxicity assay with PC3 cells, in-cell ELISA SDH-A; details: 5 days treatment
# Protocol: as §1, §2, §3, §4
# THP1-Dual KO-TREX1 cells = experiment: THP1 TREX1 KO inhibition assay (type 1 interferon response); details: Homo sapiens, 144 h, type 1 interferon (QUANTI-LUC), 1 μM 5-aza-2′-deoxycytidine, six days
# Protocol: Exemplary compounds were tested for their ability to alter the type 1 interferon response in THP1 Dual TREX1 KG cells treated with 5-aza-2′-deoxycytidine. Assay procedures and results are described below.
# THP1 Dual TREX1 KG cells were purchased from Invivogen. The THP1-Dual™ KO-TREX1 cells were cultured in RPMI 1640, 10% heat-inactivated fetal bovine serum, 25 mM HEPES, 10 μg/mL blasticidin, and 100 μg/mL zeocin. THP1-Dual™ KO-TREX1 cells were treated with a dose titration of a test compound alone or in the presence of 1 μM 5-aza-2′-deoxycytidine (Sigma-Aldrich, cat #189825). Type 1 Interferon and cell viability were assessed after six days of treatment.
# Stock solution of the test compound was prepared in DMSO followed by a three-fold dilution in DMSO. Additional 50× dilution was prepared in cell culture media for each dilution. 10 μL of diluted test compound was then added to a 96-well plate.
# THP1-Dual™ KO-TREX1 cells were treated with either 1×PBS or 1 μM 5-aza-2′-deoxycytidine. […] of the THP1-Dual™ KO-TREX1 cells from either treatment were added to each well of the 96-well plate containing the test compound titration at 50,000 cells/well. Cells were incubated at 37° C., 5% CO2 in a humidified incubator for six days. Cells treated with 1 μM 5-aza-2′-deoxycytidine were added at the same density as above and incubated at 37° C., 5% CO2 in a humidified incubator for six days. On day six, 25 μL of cell supernatant was transferred to a 96-well white-walled plate, followed by addition to each well of 50 μL of QUANTI-LUC solution containing stabilizer. Luminescence was detected on a plate reader according to the manufacturer's instructions.
# The remaining cells were assessed for cell viability by adding 25 μL of CellTiter-Glo (Promega, G9683) solution to each well, and being placed on a shaker for 10 minutes at room temperature. Luminescence was detected on a plate reader, according to the manufacturer's instructions.
# In the tables “A” represents values≤0.050 μM; “B” represents values from >0.050 μM to ≤0.100 μM; “C” represents values from >0.100 μM to ≤0.250 μM; “D” represents values from >0.250 μM to ≤1 μM; “E” represents values>1 μM; and “NT”=not tested: […]
# PC3 cells = experiment: Mitochondria toxicity assay with PC3 cells, cytotoxicity (Cell Titer Glo); details: Homo sapiens, PC-3, 120 h, 5 days treatment
# Protocol: as §2
# For the cytotoxicity assay, the medium from the cell viability plate was removed, 50 μL per well of Cell Titer Glo (Promega, G9683) was added. Then the cells incubated for 30 minutes at room temperature. Luminescence was read by Envision (PerkinElmer 2105).
# as §4
Structure (SMILES),IC50 [1],IC50 [2],IC50 (THP1-Dual KO-TREX1 cells),IC50 (PC3 cells)
"CC[C@]1(CO)O[C@@H](n2cnc3c(N)nc(F)nc32)[C@@H](F)[C@@H]1O [Compound 81, (2R,3R,4S,5R)-5-(6-amino-2-fluoropurin-9-yl)-2-ethyl-4-fluoro-2-(hydroxymethyl)oxolan-3-ol]",> 100 µM,> 100 µM,> 1 µM,> 100 µM
"Nc1ccn([C@@H]2O[C@@](CO)(CF)[C@@H](O)[C@@H]2F)c(=O)n1 [Compound 113, 4-amino-1-((2R,3S,4R,5R)-3-fluoro-5-(fluoromethyl)-4-hydroxy-5-(hydroxymethyl)-tetrahydrofuran-2-yl)pyrimidin-2(1H)-one]",< 1 µM,< 1 µM,> 1 µM,< 1 µM
"Nc1nc(=O)n([C@H]2C[C@H](O)[C@](CO)(CF)O2)cc1F [Compound 22, 4-amino-5-fluoro-1-((2R,4S,5R)-5-(fluoromethyl)-4-hydroxy-5-(hydroxymethyl)tetrahydrofuran-2-yl)pyrimidin-2(1H)-one]",> 100 µM,> 100 µM,0.05 to 0.1 µM,> 100 µM
"Nc1nc(=O)n([C@H]2C[C@H](O)[C@](CO)(C(F)F)O2)cc1F [Compound 65, 4-amino-1-[(2R,4S,5R)-5-(difluoromethyl)-4-hydroxy-5-(hydroxymethyl)oxolan-2-yl]-5-fluoropyrimidin-2-one]",> 100 µM,> 100 µM,0.25 to 1 µM,> 100 µM
"Nc1nc(=O)n([C@@H]2OC(CO)(CO)[C@@H](O)[C@@H]2F)cc1F [Compound 177, 4-amino-5-fluoro-1-((2R,3S,4R)-3-fluoro-4-hydroxy-5,5-bis(hydroxymethyl)tetrahydrofuran-2-yl) pyrimidin-2(1H)-one]",> 100 µM,> 100 µM,> 1 µM,> 100 µM
"Cc1cn([C@H]2C[C@H](O)[C@](CO)(CCl)O2)c(=O)[nH]c1=O [Compound 4, 1-((2R,4S,5R)-5-(chloromethyl)-4-hydroxy-5-(hydroxymethyl)tetrahydrofuran-2-yl)-5-methylpyrimidine-2,4(1H,3H)-dione]",> 100 µM,> 100 µM,> 1 µM,> 100 µM
[N-]=[N+]=N[C@]1(CO)O[C@@H](n2cc(F)c(N)nc2=O)[C@@H](F)[C@@H]1O [Compound 165],< 1 µM,< 1 µM,0.25 to 1 µM,> 100 µM
"CCCC1(CO)O[C@@H](n2ccc(N)nc2=O)C[C@@H]1O (stereo partly drawn) [Compound 57, 4-amino-1-((2R,4S,5R)-4-hydroxy-5-(hydroxymethyl)-5-propyltetrahydrofuran-2-yl)pyrimidin-2(1H)-one]",> 100 µM,> 100 µM,> 1 µM,> 100 µM
"N#C[C@]1(CO)O[C@@H](n2cnc3c(N)nc(F)nc32)C[C@@H]1O [Compound 26, (2R,3S,5R)-5-(6-amino-2-fluoro-9H-purin-9-yl)-3-hydroxy-2-(hydroxymethyl) tetrahydrofuran-2-carbonitrile]",50 to 100 µM,> 100 µM,> 1 µM,> 100 µM
"C=C[C@]1(CO)O[C@@H](n2cc(F)c(N)nc2=O)[C@@H](F)[C@@H]1O [Compound 76, 4-amino-1-[(2R,3S,4R,5R)-5-ethenyl-3-fluoro-4-hydroxy-5-(hydroxymethyl)oxolan-2-yl]-5-fluoropyrimidin-2-one]",1 to 10 µM,1 to 10 µM,> 1 µM,> 100 µM
"[N-]=[N+]=N[C@]1(CO)O[C@@H](n2ccc(N)nc2=O)[C@@H](F)[C@@H]1O [Compound 50, 4-amino-1-((2R,3S,4R,5R)-5-azido-3-fluoro-4-hydroxy-5-(hydroxymethyl)tetrahydrofuran-2-yl)pyrimidin-2(1H)-one]",< 1 µM,< 1 µM,0.25 to 1 µM,< 1 µM
"CC[C@]1(CO)O[C@@H](n2cnc3c(=O)[nH]c(N)nc32)[C@@H](F)[C@@H]1O [Compound 68, 2-amino-9-((2R,3S,4R,5R)-5-ethyl-3-fluoro-4-hydroxy-5-(hydroxymethyl)tetrahydrofuran-2-yl)-1,9-dihydro-6H-purin-6-one]",10 to 50 µM,10 to 50 µM,> 1 µM,10 to 50 µM
"C=C[C@]1(CO)O[C@@H](n2cc(F)c(N)nc2=O)C[C@@H]1O [Compound 74, 4-amino-5-fluoro-1-((2R,4S,5R)-4-hydroxy-5-(hydroxymethyl)-5-vinyltetrahydrofuran-2-yl)pyrimidin-2(1H)-one]",> 100 µM,> 100 µM,> 1 µM,> 100 µM
"Nc1nc(=O)n([C@@H]2O[C@](/C=C/Cl)(CO)[C@@H](O)[C@@H]2F)cc1F [Compound 131, 4-amino-1-[(2R,3S,4R,5R)-5(E)-(2-chloroethenyl)-3-fluoro-4-hydroxy-5-(hydroxymethyl)oxolan-2-yl]-5-fluoropyrimidin-2-one]",> 100 µM,> 100 µM,> 1 µM,> 100 µM
"C=C[C@]1(CO)O[C@@H](n2cnc3c(N)nc(F)nc32)[C@@H](F)[C@@H]1O [Compound 80, (2R,3R,4S,5R)-5-(6-amino-2-fluoropurin-9-yl)-2-ethenyl-4-fluoro-2-(hydroxymethyl)oxolan-3-ol]",50 to 100 µM,> 100 µM,> 1 µM,> 100 µM
"Cc1cn([C@@H]2O[C@@](CO)(N=[N+]=[N-])[C@@H](O)[C@@H]2F)c(=O)[nH]c1=O [Compound 178, 1-((2R,3S,4R,5R)-5-azido-3-fluoro-4-hydroxy-5-(hydroxymethyl)tetrahydrofuran-2-yl)-5-methylpyrimidine-2,4(1H,3H)-dione]",10 to 50 µM,> 100 µM,> 1 µM,> 100 µM
C=C[C@]1(CO)O[C@@H](n2cnc3c(=O)[nH]c(N)nc32)C[C@@H]1O [Compound 69],1 to 10 µM,1 to 10 µM,> 1 µM,1 to 10 µM
"C#C[C@]1(CO)O[C@@H](n2cnc3c(N)ncnc32)C[C@@H]1O [Compound 27, (2R,3S,5R)-5-(6-amino-9H-purin-9-yl)-2-ethynyl-2-(hydroxymethyl)tetrahydrofuran-3-ol]",> 100 µM,> 100 µM,> 1 µM,> 100 µM
"Nc1nc2c(ncn2[C@H]2C[C@H](O)[C@](CO)(CF)O2)c(=O)[nH]1 [Compound 46, 2-amino-9-((2R,4S,5R)-5-(fluoromethyl)-4-hydroxy-5-(hydroxymethyl)tetrahydro-furan-2-yl)-1,9-dihydro-6H-purin-6-one]",1 to 10 µM,1 to 10 µM,> 1 µM,1 to 10 µM
